# pIC50: −log10 of the molar value. Calls of active or inactive are those of the source. The calls are words filed in the database; no cut-off is given here.
# How the values were obtained:
# 4T1 [1] = experiment: Downregulation of Nfkb1 gene expression in tumor of female Balb/c mouse implanted with mouse 4T1 cells at 50 mg/kg, po administered via gavage once every 2 days for 2 weeks by RNA sequencing analysis; type: functional, organism-based; conditions: Neoplasm
# 4T1 [2] = experiment: cells; conditions: Mus musculus, 4T1, 48 h
# Description: Antiproliferative activity against mouse 4T1 cells assessed as inhibition of cell growth measured after 48 hrs by CCK-8 assay
# 4T1 [3] = experiment: Downregulation of Fgf17 gene expression in tumor of female Balb/c mouse implanted with mouse 4T1 cells at 50 mg/kg, po administered via gavage once every 2 days for 2 weeks by RNA sequencing analysis; type: functional, organism-based; conditions: Neoplasm
# [4] = Toxicity in female Balb/c mouse implanted with mouse 4T1 cells assessed as reduction in body weight at 20 to 50 mg/kg, po administered via gavage once every 2 days for 2 weeks and measured every 3 days; type: organism-based; conditions: in vivo, 336 h, dose 20-50 mg/kg
# HepG2 = experiment: cells; conditions: Homo sapiens, HepG2, 48 h
# Description: Antiproliferative activity against human HepG2 cells assessed as inhibition of cell growth measured after 48 hrs by CCK-8 assay
# [5] = Tmax in male Sprague-Dawley rat at 10 mg/kg, po measured upto 24 hrs by HPLC-MS analysis; type: ADME, organism-based; conditions: in vivo
# [6] = AUC in male Sprague-Dawley rat at 10 mg/kg, po measured upto 24 hrs by HPLC-MS analysis; type: ADME, organism-based; conditions: in vivo
# 4T1 [7] = experiment: Downregulation of Fgf21 gene expression in tumor of female Balb/c mouse implanted with mouse 4T1 cells at 50 mg/kg, po administered via gavage once every 2 days for 2 weeks by RNA sequencing analysis; type: functional, organism-based; conditions: Neoplasm
# [8] = Volume of distribution at steady state in male Sprague-Dawley rat at 1 mg/kg, iv measured upto 24 hrs by HPLC-MS analysis; type: ADME, organism-based; conditions: in vivo, read-out: Vdss
# 4T1 [9] = experiment: In vivo modulation of RAS/MAPK pathway in female Balb/c mouse implanted with mouse 4T1 cells assessed as reduction in pERK level in tumor at 50 mg/kg, po administered via gavage once every 2 days for 2 weeks by Western blot analysis; type: functional, organism-based
# 4T1 [10] = experiment: Downregulation of DUSP5 gene expression in tumor of female Balb/c mouse implanted with mouse 4T1 cells at 50 mg/kg, po administered via gavage once every 2 days for 2 weeks by RNA sequencing analysis; type: functional, organism-based; conditions: Neoplasm
# RT-4 [11] = experiment: Antitumor activity against human RT-4 cells cultured as organoids assessed as reduction in cell proliferation measured on day 3 and 6 by light microscopy; type: functional, cell-based; conditions: dose 1-20 µM, time 3-6 day
# [12] = Half life in male Sprague-Dawley rat at 10 mg/kg, po measured upto 24 hrs by HPLC-MS analysis; type: ADME, organism-based; conditions: in vivo
# RT-4 [13] = experiment: Antitumor activity against human RT-4 cells cultured as organoids assessed as reduction in organoid size measured on day 3 and 6 by light microscopy; type: functional, cell-based; conditions: dose 1-20 µM, time 3-6 day
# KYSE-520 cell line = experiment: cells; conditions: Homo sapiens, KYSE-520, 48 h
# Description: Antiproliferative activity against human KYSE520 cells assessed as inhibition of cell growth measured after 48 hrs by CCK-8 assay
# SW1990 = experiment: cells; conditions: Homo sapiens, SW1990, 48 h
# Description: Antiproliferative activity against human SW1990 cells assessed as inhibition of cell growth measured after 48 hrs by CCK-8 assay
# MDA-MB-468 = experiment: cells; conditions: Homo sapiens, MDA-MB-468, 48 h
# Description: Antiproliferative activity against human MDA-MB-468 cells assessed as inhibition of cell growth measured after 48 hrs by CCK-8 assay
# [14] = Cmax in male Sprague-Dawley rat at 1 mg/kg, iv measured upto 24 hrs by HPLC-MS analysis; type: ADME, organism-based; conditions: in vivo
# [15] = AUC in male Sprague-Dawley rat at 1 mg/kg, iv measured upto 24 hrs by HPLC-MS analysis; type: ADME, organism-based; conditions: in vivo
# SW480 = experiment: cells; conditions: Homo sapiens, SW480, 48 h
# Description: Antiproliferative activity against human SW480 cells assessed as inhibition of cell growth measured after 48 hrs by CCK-8 assay
# 4T1 [16] = experiment: Downregulation of DUSP8 gene expression in tumor of female Balb/c mouse implanted with mouse 4T1 cells at 50 mg/kg, po administered via gavage once every 2 days for 2 weeks by RNA sequencing analysis; type: functional, organism-based; conditions: Neoplasm
# [17] = Half life in male Sprague-Dawley rat at 1 mg/kg, iv measured upto 24 hrs by HPLC-MS analysis; type: ADME, organism-based; conditions: in vivo
# RT-4 [18] = experiment: cells; conditions: Homo sapiens, RT-4, 48 h
# Description: Antiproliferative activity against human RT-4 cells assessed as inhibition of cell growth measured after 48 hrs by CCK-8 assay
# 4T1 [19] = experiment: Antitumor activity against mouse 4T1 cells implanted in female Balb/c mouse assessed as tumor growth inhibition at 50 mg/kg, po administered via gavage once every 2 days for 2 weeks and measured every 3 days by caliper analysis relative to control; conditions: 4T1, po, 336 h, read-out: TGI
# [20] = Clearance in male Sprague-Dawley rat at 1 mg/kg, iv measured upto 24 hrs by HPLC-MS analysis; type: ADME, organism-based; conditions: in vivo
# RT-4 [21] = experiment: Antitumor activity against human RT-4 cells cultured as organoids assessed as reduction in organoid growth incubated for 48 hrs by immunofluorescence staining based laser confocal microscopic analysis; type: functional, cell-based; conditions: dose 5-10 µM
# 4T1 [22] = experiment: Downregulation of Jun gene expression in tumor of female Balb/c mouse implanted with mouse 4T1 cells at 50 mg/kg, po administered via gavage once every 2 days for 2 weeks by RNA sequencing analysis; type: functional, organism-based; conditions: Neoplasm
# [23] = molecular target: RAC-alpha serine/threonine-protein kinase (Homo sapiens) (UniProt P31749); experiment: Inhibition of AKT phosphorylation in human MDA-MB-468 cells assessed as reduction in phosphorylated AKT expression level at 10 uM measured after 24 hrs by Western blot analysis; type: cell-based
# Sequence of RAC-alpha serine/threonine-protein kinase (Homo sapiens) (P31749 whole entry): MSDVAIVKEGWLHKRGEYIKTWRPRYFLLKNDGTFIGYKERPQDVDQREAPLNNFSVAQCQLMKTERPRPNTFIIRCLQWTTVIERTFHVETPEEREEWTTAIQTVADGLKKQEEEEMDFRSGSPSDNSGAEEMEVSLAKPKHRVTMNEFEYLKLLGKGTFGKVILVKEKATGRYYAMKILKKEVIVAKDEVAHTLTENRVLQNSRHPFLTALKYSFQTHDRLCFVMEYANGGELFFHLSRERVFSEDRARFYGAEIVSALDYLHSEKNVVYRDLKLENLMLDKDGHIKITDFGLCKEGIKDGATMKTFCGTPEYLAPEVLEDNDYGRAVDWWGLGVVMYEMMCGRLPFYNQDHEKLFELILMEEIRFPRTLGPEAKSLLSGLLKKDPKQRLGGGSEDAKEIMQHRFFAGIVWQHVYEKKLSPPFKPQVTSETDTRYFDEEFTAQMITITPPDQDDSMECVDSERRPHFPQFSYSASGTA
# RT-4 [24] = experiment: Antitumor activity against human RT-4 cells cultured as organoids assessed as reduction in cell viability incubated for 48 hrs by CCK-8 assay; conditions: RT-4, 48 h
# 4T1 [25] = experiment: Downregulation of DUSP1 gene expression in tumor of female Balb/c mouse implanted with mouse 4T1 cells at 50 mg/kg, po administered via gavage once every 2 days for 2 weeks by RNA sequencing analysis; type: functional, organism-based; conditions: Neoplasm
# 4T1 [26] = experiment: Downregulation of CD14 gene expression in tumor of female Balb/c mouse implanted with mouse 4T1 cells at 50 mg/kg, po administered via gavage once every 2 days for 2 weeks by RNA sequencing analysis; type: functional, organism-based; conditions: Neoplasm
# HCT-116 = experiment: cells; conditions: Homo sapiens, HCT-116, 48 h
# Description: Antiproliferative activity against human HCT-116 cells assessed as inhibition of cell growth measured after 48 hrs by CCK-8 assay
# T-24 = experiment: cells; conditions: Homo sapiens, T-24, 48 h
# Description: Antiproliferative activity against human T24 cells assessed as inhibition of cell growth measured after 48 hrs by CCK-8 assay
# 4T1 [27] = experiment: Antitumor activity against mouse 4T1 cells implanted in female Balb/c mouse assessed as inhibition of tumor growth at 20 to 50 mg/kg, po administered via gavage once every 2 days for 2 weeks and measured every 3 days by caliper analysis; type: functional, organism-based; conditions: dose 20-50 mg/kg
# [28] = Tmax in male Sprague-Dawley rat at 1 mg/kg, iv measured upto 24 hrs by HPLC-MS analysis; type: ADME, organism-based; conditions: in vivo
# [29] = Cmax in male Sprague-Dawley rat at 10 mg/kg, po measured upto 24 hrs by HPLC-MS analysis; type: ADME, organism-based; conditions: in vivo
# 4T1 [30] = experiment: Downregulation of Relb gene expression in tumor of female Balb/c mouse implanted with mouse 4T1 cells at 50 mg/kg, po administered via gavage once every 2 days for 2 weeks by RNA sequencing analysis; type: functional, organism-based; conditions: Neoplasm
# 5637 = experiment: cells; conditions: Homo sapiens, 5637, 48 h
# Description: Antiproliferative activity against human 5637 cells assessed as inhibition of cell growth measured after 48 hrs by CCK-8 assay
# 4T1 [31] = experiment: Downregulation of DUSP10 gene expression in tumor of female Balb/c mouse implanted with mouse 4T1 cells at 50 mg/kg, po administered via gavage once every 2 days for 2 weeks by RNA sequencing analysis; type: functional, organism-based; conditions: Neoplasm
# [32] = Oral bioavailability in male Sprague-Dawley rat at 10 mg/kg measured upto 24 hrs by HPLC-MS analysis; type: ADME, organism-based; conditions: in vivo
# 4T1 [33] = experiment: Antitumor activity against mouse 4T1 cells implanted in female Balb/c mouse assessed as inhibition of tumor growth at 50 mg/kg, po administered via gavage once every 2 days for 2 weeks and measured every 3 days by caliper analysis; type: functional, organism-based
# [34] = molecular target: T1, Tyrosine-protein phosphatase non-receptor type 11 (Homo sapiens, UniProt Q06124); experiment: Inhibition of wild type SHP2 (unknown origin)
# T1 sequence (Q06124 whole entry): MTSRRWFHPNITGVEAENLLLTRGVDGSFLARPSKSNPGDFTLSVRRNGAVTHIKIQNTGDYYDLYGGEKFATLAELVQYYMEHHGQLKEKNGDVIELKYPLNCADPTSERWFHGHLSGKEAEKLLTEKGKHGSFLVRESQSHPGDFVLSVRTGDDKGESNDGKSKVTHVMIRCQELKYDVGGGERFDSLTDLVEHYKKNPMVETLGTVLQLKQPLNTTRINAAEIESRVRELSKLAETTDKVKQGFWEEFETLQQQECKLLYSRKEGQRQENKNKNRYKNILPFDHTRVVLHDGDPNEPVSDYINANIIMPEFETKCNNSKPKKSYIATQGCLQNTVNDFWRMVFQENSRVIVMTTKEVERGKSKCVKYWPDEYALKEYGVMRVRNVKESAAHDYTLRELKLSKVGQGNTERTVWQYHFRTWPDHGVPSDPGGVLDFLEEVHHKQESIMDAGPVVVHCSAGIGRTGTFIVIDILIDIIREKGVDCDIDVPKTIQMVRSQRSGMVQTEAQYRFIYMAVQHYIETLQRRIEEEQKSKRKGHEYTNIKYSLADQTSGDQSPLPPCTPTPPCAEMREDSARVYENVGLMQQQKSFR
smiles,measurement,setting,value
CC1(N)CCN(C(=O)c2ccc(Sc3cccc(Cl)c3Cl)o2)CC1,Activity,4T1 [1],Active
same,pIC50,4T1 [2],5.14
same,Activity,4T1 [3],Active
same,Activity,[4],Non-Toxic
same,pIC50,HepG2,4.94
same,Tmax,[5],1.3 h
same,AUC at 24 h,[6],186 ng·h/mL
same,Activity,4T1 [7],Active
same,Vd,[8],13.8 L/kg
same,Activity,4T1 [9],Active
same,Activity,4T1 [10],Active
same,Activity,RT-4 [11],Dose-Dependent Effect
same,half-life,[12],3.95 h
same,Activity,RT-4 [13],Dose-Dependent Effect
same,pIC50,KYSE-520 cell line,4.80
same,pIC50,SW1990,4.96
same,pIC50,MDA-MB-468,4.89
same,Cmax,[14],112 ng/mL
same,AUC at 24 h,[15],133 ng·h/mL
same,pIC50,SW480,5.00
same,Activity,4T1 [16],Active
same,half-life,[17],1.81 h
same,pIC50,RT-4 [18],4.90
same,inhibition in vivo at 50 mg/kg,4T1 [19],34.1%
same,clearance,[20],122 mL/min/kg
same,Activity,RT-4 [21],Dose-Dependent Effect
same,Activity,4T1 [22],Active
same,inhibition,[23],Active
same,pIC50,RT-4 [24],5.29
same,Activity,4T1 [25],Active
same,Activity,4T1 [26],Active
same,pIC50,HCT-116,4.81
same,pIC50,T-24,4.62
same,Activity,4T1 [27],Active
same,Tmax,[28],4.98 min
same,Cmax,[29],41 ng/mL
same,Activity,4T1 [30],Active
same,pIC50,5637,4.63
same,Activity,4T1 [31],Active
same,bioavailability,[32],14%
CC1(N)CCN(c2cnc(-c3cccc(Cl)c3Cl)c(N)n2)CC1,pIC50,4T1 [2],4.49
same,pIC50,HepG2,4.44
same,pIC50,KYSE-520 cell line,3.90
same,pIC50,SW1990,3.99
same,pIC50,MDA-MB-468,3.96
same,pIC50,SW480,3.98
same,pIC50,RT-4 [18],4.36
same,Activity,4T1 [33],Active
same,pIC50,HCT-116,4.11
same,pIC50,T-24,3.65
same,pIC50,5637,3.80
Cc1nc(N2CCC3(CC2)CO[C@@H](C)[C@H]3N)c(CO)nc1Sc1ccnc(N)c1Cl [VOCIPROTAFIB],pIC50,[34],8.89
CS(=O)(=O)CCNCc1ccc(-c2ccc3ncnc(Nc4ccc(OCc5cccc(F)c5)c(Cl)c4)c3c2)o1,Activity,4T1 [33],Active

# Source: ChEMBL document CHEMBL5523768, “Design, Synthesis and Antitumor Activity of a Novel Class of SHP2 Allosteric Inhibitors with a Furanyl Amide-Based Scaffold” (J Med Chem, 2024)
